# Results: patent US10849893B2 (Athenex HK Innovative Limited, priority 2018, dated 2020)
# Several values for one entry are separate records, joined by “and”; a condition that tells them apart may be missing. Equal entries are not always repeated. Where two headings read alike, the source gives them in different places.
# What was measured:
# [1] = clinical; settings: human, po
# Description: A 2-part study was conducted in subjects with solid tumors (“Study 2”). […] The dose levels increased to 75 mg/m^2, 150 mg/m^2, 225 mg/m^2, 300 mg/m^2, 375 mg/m^2, and 400 mg/m^2. In the second part of this study, half of the group starting at a selected dose from stage 1, was given over two consecutive days every three weeks. A total of 15 (n=40) subjects enrolled in this study.
# All subject PK data within the dataset were analyzed using Phoenix 8.0. […] Individual time points for the terminal slope were automatically selected by the software, and linear up—log down interpolation calculation method was used for the analysis. Individual BLQ samples were set to 0.00 ng/ml for noncompartmental analysis unless the PK sample occurred between two PK samples above the limit of quantification, in which case the PK sample was set to missing. For the calculation of summary statistics and mean concentration figures, all BLQ samples were set to 0.00 ng/ml.
# [2] = 75 mg/m^2 over 28 days, monotherapy schedule for mHRPC; cited from earlier work
# [3] = clinical
# [4] = Two phase 1 studies of docetaxel capsules administered orally in combination with HM30181A; type: in vivo, human
# [5] = oral 150 mg/m^2 with Compound A, individual subjects
# [6] = oral 225 mg/m^2 with Compound A, Mean, N=3
# [7] = oral 225 mg/m^2 with Compound A, individual subjects
# [8] = male, human, in vivo, po, 75 mg/m2
# [9] = mean oral (75 mg/m^2) as % of mean IV (60 mg/m^2)
# 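For AUC % Extrapobs in this document: noncompartmental pharmacokinetic analysis in subjects with solid tumors, using linear-up log-down interpolation, with terminal slope time points picked automatically by the software.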
# 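For AUC0-12 in this document: noncompartmental pharmacokinetic analysis in subjects with solid tumors, using linear-up log-down interpolation, with terminal slope time points picked automatically by the software.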
# 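For AUC0-24 in this document: noncompartmental pharmacokinetic analysis in subjects with solid tumors, using linear-up log-down interpolation, with terminal slope time points picked automatically by the software.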
# 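For AUC0-48 in this document: noncompartmental pharmacokinetic analysis in subjects with solid tumors, using linear-up log-down interpolation, with terminal slope time points picked automatically by the software.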
compound,measurement,setting,value
"CC(=O)O[C@@]12CO[C@@H]1C[C@H](O)[C@@]1(C)C(=O)[C@H](O)C3=C(C)[C@@H](OC(=O)[C@H](O)[C@@H](NC(=O)OC(C)(C)C)c4ccccc4)C[C@@](O)([C@@H](OC(=O)c4ccccc4)[C@H]21)C3(C)C [docetaxel, (2aR,4S,4aS,6R,9S,11S,12S,12aR,12b S)-12b-acetoxy-9-(((2R,3S)-3-((tert-butoxycarbonyl)amino)-2-hydroxy-3-phenylpropanoyl)oxy)-4,6,11-trihydroxy-4a,8,13,13-tetramethyl-5-oxo-2a,3,4,4a,5,6,9,10,11,12,12a, 12b-dodecahydro-1H-7,11-methanocyclodeca[3,4]benzo[1,2-b]oxet-12-yl benzoate]",Cmax,[5],136 ng/mL and 112 ng/mL
same,Tmax,[5],2.00 h and 4.00 h
same,t1/2,[5],63.3 h
same,AUC0-24,"oral 150 mg/m^2 with Compound A, individual subjects by cancer diagnosis",490 to 1050 ng·h/mL
same,AUC0-24,"oral 150 mg/m^2 with Compound A, individual subjects by cancer diagnosis, listed as Docetaxel",1050 ng·h/mL and 720 ng·h/mL and 490 ng·h/mL
same,AUC0-12,[6],618 ng·h/mL
same,AUC % Extrapobs,[6],4.93%
same,Cmax,[6],114 ng/mL
same,Tmax,[6],1.00 h
same,AUC0-12,[7],835 ng·h/mL and 380 ng·h/mL and 637 ng·h/mL
same,AUC0-24,[7],416 ng·h/mL and 974 ng·h/mL
same,AUC0-48,[7],1100 ng·h/mL and 443 ng·h/mL and 1200 ng·h/mL
same,AUC % Extrapobs,[7],6.48% and 3.06% and 5.26%
same,AUCINF—obs,[7],1390 ng·h/mL and 517 ng·h/mL and 1650 ng·h/mL
same,Cmax,[7],139 ng/mL and 84.7 ng/mL
same,Tmax,[7],2.00 h
same,t1/2,[7],46.1 h
same,AUC(0-inf),"[1]; in vivo, 35 mg/m2",308 ng·h/mL
same,half-life,"[1]; in vivo, 150 mg/m2",53.2 h
same,Cmax,"[1]; in vivo, 150 mg/m2, Cmax, oral 150 mg/m^2 with Compound A, individual subjects",125 ng/mL
same,half-life,"[1]; in vivo, 225 mg/m2",54.4 h
same,Cmax,"[1]; in vivo, 225 mg/m2, Cmax, oral 225 mg/m^2 with Compound A, individual subjects",118 ng/mL
same,AUC(0-t),"[1]; plasma, 35 mg/m2, AUC0-12, oral 35 mg/m^2 with Compound A, Mean, N=4",184 ng·h/mL
same,AUC(0-t),"[1]; plasma, 35 mg/m2, AUC0-24, oral 35 mg/m^2 with Compound A, Mean, N=4",211 ng·h/mL
same,AUC(0-t),"[1]; plasma, 35 mg/m2, AUC0-48, oral 35 mg/m^2 with Compound A, Mean, N=4",240 ng·h/mL
same,AUC(0-inf),"[1]; plasma, 35 mg/m2, AUCINF—obs, oral 35 mg/m^2 with Compound A, Mean, N=4",296 ng·h/mL
same,Cmax,"[1]; plasma, 35 mg/m2, Cmax, oral 35 mg/m^2 with Compound A, Mean, N=4",69.1 ng/mL
same,Cmax,"[1]; plasma, 35 mg/m2, Cmax, oral 35 mg/m^2 with Compound A, individual subjects",38 to 157 ng/mL
same,half-life,"[1]; plasma, 35 mg/m2, t1/2, oral 35 mg/m^2 with Compound A, Mean, N=4",27.6 h
same,half-life,"[1]; plasma, 35 mg/m2, t1/2, oral 35 mg/m^2 with Compound A, mean",29.2 h
same,concentration at 24 hr,"[1]; plasma, 35 mg/m^2, Analyte Concentration, oral 35 mg/m^2, cohort 1, time 24.0 hr, individual subjects",1.25 ng/mL
same,AUC(0-t),"[1]; plasma, 75 mg/m2, AUC0-48, oral 75 mg/m^2 with Compound A, Mean, N=3",675 ng·h/mL
same,AUC(0-inf),"[1]; plasma, 75 mg/m2, AUCINF—obs, oral 75 mg/m^2 with Compound A, Mean, N=3",815 ng·h/mL
same,Cmax,"[1]; plasma, 75 mg/m2, Cmax, oral 75 mg/m^2 with Compound A, Mean, N=3",172 ng/mL
same,half-life,"[1]; plasma, 75 mg/m2, Reported half-life, oral 75 mg/m^2, individual values, sampling to 168 h, LLOQ 0.2 ng/mL",51.4 h
same,half-life,"[1]; plasma, 75 mg/m2, t1/2, oral 75 mg/m^2 with Compound A, Mean, N=3",53.1 h
same,half-life,"[1]; plasma, 75 mg/m2, t1/2, oral 75 mg/m^2 with Compound A, individual subjects",51.4 h
same,half-life,"[1]; plasma, 75 mg/m2, t1/2, oral 75 mg/m^2 with Compound A, mean",53.1 h
same,concentration at 0.25 hr,"[1]; plasma, 75 mg/m^2, Analyte Concentration, oral 75 mg/m^2, cohort 2, time 0.250 hr, individual subjects",28 ng/mL
same,Tmax,"[1]; plasma, 150 mg/m2",2.67 h
same,AUC(0-t),"[1]; plasma, 150 mg/m2, AUC0-12, oral 150 mg/m^2 with Compound A, individual subjects",446 ng·h/mL
same,Cmax,"[1]; plasma, 150 mg/m2, Cmax, oral 150 mg/m^2 with Compound A, individual subjects",112 to 136 ng/mL
same,half-life,"[1]; plasma, 150 mg/m2, Reported half-life, oral 150 mg/m^2, individual values, sampling to 168 h, LLOQ 0.2 ng/mL",72 h
same,half-life,"[1]; plasma, 150 mg/m2, t1/2, oral 150 mg/m^2 with Compound A, individual subjects",72 h
same,Tmax,"[1]; plasma, 225 mg/m2",0.5 h
same,AUC(0-t),"[1]; plasma, 225 mg/m2, AUC0-24, oral 225 mg/m^2 with Compound A, Mean, N=3",792 ng·h/mL
same,AUC(0-t),"[1]; plasma, 225 mg/m2, AUC0-24, oral 225 mg/m^2 with Compound A, individual subjects",986 ng·h/mL
same,AUC(0-t),"[1]; plasma, 225 mg/m2, AUC0-48, oral 225 mg/m^2 with Compound A, Mean, N=3",914 ng·h/mL
same,AUC(0-inf),"[1]; plasma, 225 mg/m2, AUCINF—obs, oral 225 mg/m^2 with Compound A, Mean, N=3",1190 ng·h/mL
same,half-life,"[1]; plasma, 225 mg/m2, t1/2, oral 225 mg/m^2 with Compound A, Mean, N=3",56 h
same,half-life,"[1]; plasma, 225 mg/m2, t1/2, oral 225 mg/m^2 with Compound A, individual subjects",67.3 h
same,concentration at 1 hr,"[1]; plasma, 225 mg/m^2, Analyte Concentration, oral 225 mg/m^2, cohort 4, time 1.00 hr, individual subjects",55.6 ng/mL
same,concentration at 2 hr,"[1]; plasma, 225 mg/m^2, Analyte Concentration, oral 225 mg/m^2, cohort 4, time 2.00 hr, individual subjects",118 ng/mL
same,concentration at 4 hr,"[1]; plasma, 225 mg/m^2, Analyte Concentration, oral 225 mg/m^2, cohort 4, time 4.00 hr, individual subjects",28 ng/mL
same,target AUC,[2],3410 ± 980 ng·h/mL
same,Tmax Mean %,"[3]; male, human, in vivo",207.55%
same,Average Time above Target (0 to last time point measured above 4 ng/ml),"[3]; male, human, in vivo, iv",40.9 h
same,Dose Normalized AUC,"[3]; male, human, in vivo, iv",27.17 ng·h/mL
same,AUC(0-t),"[3]; male, human, in vivo, iv, 60 mg/m2, AUC0-24",1350 to 1970 ng·h/mL
same,AUC(0-inf),"[3]; male, human, in vivo, iv, 60 mg/m2, AUC0-inf",1970 ng·h/mL
same,AUC(0-t),"[3]; male, human, in vivo, iv, 60 mg/m2, AUC0-t",1890 ng·h/mL
same,Cmax,"[3]; male, human, in vivo, iv, 60 mg/m2, Cmax",1020 to 1570 ng/mL
same,Tmax,"[3]; male, human, in vivo, iv, 60 mg/m2, Tmax",0.88 h
same,half-life,"[3]; male, human, in vivo, iv, Reported half-life",17.4 h
same,Average Time above Target (0 to last time point measured above 4 ng/ml),"[3]; male, human, in vivo, po",20.5 h
same,Dose Normalized AUC,"[3]; male, human, in vivo, po",23.33 ng·h/mL
same,AUC(0-inf),[3]; [8],476 ng·h/mL
same,half-life,[3]; [8],21.3 h
same,AUC(0-t),"[3]; male, human, in vivo, po, 75 mg/m2, AUC0-24",313 to 336 ng·h/mL
same,AUC(0-inf),"[3]; male, human, in vivo, po, 75 mg/m2, AUC0-inf",478 ng·h/mL
same,AUC(0-t),"[3]; male, human, in vivo, po, 75 mg/m2, AUC0-t",395 ng·h/mL
same,half-life,"[3]; male, human, in vivo, po, 75 mg/m2, Reported half-life",16.4 h
same,Tmax,"[3]; male, human, in vivo, po, 75 mg/m2, Tmax",1.83 h
same,Cmax Mean %,[3]; [9],7.87%
same,t1/2 Mean %,[3]; [9],104.60%
same,AUC,"[4]; human, plasma, iv, 75 mg/m2, IV 75 mg/m^2",2420 ng·h/mL
same,AUC,"[4]; human, plasma, po, oral 35 mg/m^2 with HM30181A 15 mg",248 ng·h/mL
same,AUC,"[4]; human, plasma, po, oral 75 mg/m^2 with HM30181A 15 mg",692 ng·h/mL
same,AUC,"[4]; human, plasma, po, oral 150 mg/m^2 with HM30181A 15 mg",888 ng·h/mL
same,AUC,"[4]; human, plasma, po, oral 225 mg/m^2 with HM30181A 15 mg",1400 ng·h/mL
same,bioavailability,"[4]; human, plasma, oral 75 mg/m^2 with HM30181A 15 mg, read-out: Individual F %",20 to 31%
same,Tmax,"[4]; human, plasma, oral capsules in combination with HM30181A",3 to 4 h
same,half-life,"[4]; human, plasma, oral capsules in combination with HM30181A, read-out: terminal phase half-life (converted)",~56 h
same,Cmax as % of that observed after IV administration,[4]; oral with HM30181A vs IV,9.5-13%
